In BigSolDB 2.1:

NC12CC3CC(C1)CC(O)(C3)C2
solubility (mole fraction)
Settings	in THF	in ethanol	in methanol	in n-butanol	in n-propanol	in water
278.15 K	0.0201	0.0608	0.0136	0.0626	0.133	0.0125
283.15 K	0.0213	0.0768	0.0176	0.0657	0.145	0.0146
288.15 K	0.0229	0.0974	0.0209	0.0679	0.157	0.0173
293.15 K	0.0247	0.123	0.0253	0.0704	0.171	0.0207
298.15 K	0.0269	0.151	0.0297	0.0736	0.185	0.0233
303.15 K	0.0294	0.183	0.0352	0.0761	0.2	0.0266
308.15 K	0.0323	0.219	0.0422	0.0799	0.216	0.0306
313.15 K	0.0356	0.256	0.0509	0.0827	0.234	0.0354
318.15 K	0.0394	0.296	0.0618	0.0868	0.252	0.0413
323.15 K	0.0439	0.337	0.0754	0.0904	0.272	0.0486
328.15 K	0.049	0.389	0.0926	0.0943	0.293	0.0575
